Common to all, as to format: cell-based
Assay [1] has as its system IL-12p70 (the complex of IL-12p35 and p40). Nature of the assay: IL-12p70 production inhibition in macrophages derived from mouse abdomen (IFN-γ/SAC stimulation, ELISA). To be noted: Macrophage; mouse (Balb/c) abdominal macrophages, 100 ng/mL mouse IFN-γ + 0.05% SAC, overnight; TFA salts tested where prepared as such; read-out: IL-12p70-Inhibitory Activity IC50. As to the method:
(§1) One milliliter each of a 3% (w/v) thioglycolate solution was intraperitoneally administered to mice (female Balb/c mice), the abdominal cells of each mouse were recovered after 5 or 6 days from the administration of the thioglycolate solution and the adhesive cells were collected and used in the exaluation procedures. To a culture medium containing such adhesive cells, there were added 100 ng/mL of mouse interferon-γ and a 0.05% (v/v) liquid containing killed cells derived from Staphylococcus aureus Cowan I strain (SAC) and a candidate compound and then the mixture was cultivated overnight. After the completion of the cultivation, the survival ratios were determined, there were quantitatively determined the quantities of IL-12p70 (the complex of IL-12p35 and p40) and IL-12p40 or TNF-α according to the ELISA assays while making use of the recovered supernatant of the culture medium and the 50% production-inhibitory concentration (IC50) was calculated for each case (see Table 1 and Tables 1-9 for IL-12p70 and TNF-α and Tables 1 to 10 for IL-12p40).

Assay [2] has as its system TNF-α. Nature of the assay: TNF-α production inhibition in macrophages derived from mouse abdomen (IFN-γ/SAC stimulation, ELISA). The note with it: Macrophage; mouse (Balb/c) abdominal macrophages, 100 ng/mL mouse IFN-γ + 0.05% SAC, overnight; TFA salts tested where prepared as such; read-out: TNF-α-Inhibitory Activity IC50. The method, then: as §1
For assay [3], the system named is IL-12p70 (the complex of IL-12p35 and p40). The assay can be described thus: IL-12p70 production inhibition in whole blood of mouse (IFN-γ/SAC stimulation, ELISA). The note with it: mouse (Balb/c) whole blood, EDTA, 100 ng/mL mouse IFN-γ + 1.25% SAC, overnight; TFA salts tested where prepared as such. The method, then:
The blood was recovered from the mice (female Balb/c mice) (containing added EDTA) and it was used for the evaluation. To a cell culture medium, there were added 100 ng/mL of mouse interferon-γ, 1.25% (v/v) of a liquid containing killed cells derived from Staphylococcus aureus Cowan I strain (SAC) and a candidate compound, the resulting mixture was diluted to a volume equivalent to the blood and then the diluted medium was cultivated overnight. After the completion of the cultivation, the amount of IL-12p70 (the complex of IL-12p35 and p40) was quantitatively determined according to the ELISA assays while making use of the recovered supernatant of the culture medium and the 50% production-inhibitory concentrations (IC50) were calculated for Compounds 38, 80, 82, 83, 84, 85, 87, 90 and 91. (see Table 3).

This note sets out measurements from US8314098B2, “Pyrazolo-pyrimidine compounds” (Ajinomoto Co., Inc., priority 2008, dated 2012).

Take `Cc1cccc(/C=N/Nc2cc(N3CCOCC3)n3nc(-c4ccc(N5CCN(C(=O)OC(C)(C)C)CC5)cc4)cc3n2)c1` [Compound 19, N-[2-{4-(4-t-butoxycarbonyl-piperazin-1-yl)-phenyl}-7-morpholin-4-yl-pyrazolo[1,5-a]pyrimidin-5-yl]-N′-(3-methyl-benzylidene)-hydrazine]: the IC50 in assay [1] was 60 nM; in assay [2], more than 10000 nM.

Regarding `Cc1cccc(/C=N/Nc2cc(N3CCOCC3)n3nc(-c4ccccn4)cc3n2)c1` [Compound 20, N-(3-methyl-benzylidene)-N′-(7-morpholin-4-yl-2-pyridin-2-yl-pyrazolo[1,5-a]pyrimidin-5-yl)-hydrazine], the IC50 is 8 nM in assay [1] and more than 10000 nM in assay [2].

`Cc1cccc(/C=N/Nc2cc(N3CCOCC3)n3nc(-c4ccc(N5CCNCC5)cc4)cc3n2)c1` [Compound 21, N-(3-methyl-benzylidene)-N′-{7-morpholin-4-yl-2-(4-piperazin-1-yl-phenyl)-pyrazolo[1,5-a]pyrimidin-5-yl}-hydrazine]: the results for the IC50 in assay [1] and in assay [2] were 22 nM and more than 10000 nM, respectively.

Consider `CC(=O)N1CCN(c2ccc(-c3cc4nc(N/N=C/c5cccc(C)c5)cc(N5CCOCC5)n4n3)cc2)CC1` [Compound 22, N-[2-{4-(4-acetyl-piperazin-1-yl)-phenyl}-7-morpholin-4-yl-pyrazolo[1,5-a]pyrimidin-5-yl]-N′-(3-methyl-benzylidene)-hydrazine], for which the IC50 in assay [1] is 5 nM; in assay [2], more than 10000 nM.

As to `CCN(CC)c1ccc(-c2cc3nc(N/N=C/c4cccc(C)c4)cc(N4CCOCC4)n3n2)cc1` [Compound 23, N-{2-(4-diethyl-amino-phenyl)-7-morpholin-4-yl-pyrazolo-[1,5-a]pyrimidin-5-yl}-N′-(3-methyl-benzylidene)-hydrazine], the IC50 is 14 nM in assay [1] and more than 10000 nM in assay [2].

For `COCCNc1ccc(-c2cc3nc(N/N=C/c4cccc(C)c4)cc(N4CCOCC4)n3n2)cc1` [Compound 24, N-[2-{4-(2-methoxy-ethyl-amino)-phenyl}-7-morpholin-4-yl-pyrazolo[1,5-a]pyrimidin-5-yl]-N′-(3-methyl-benzylidene)-hydrazine], the IC50 in assay [1] is 6 nM; in assay [2], more than 10000 nM.

Consider `COc1cccc(/C=N/Nc2cc(N3CCOCC3)n3nc(-c4ccccc4)cc3n2)c1` [Compound 29, N-(3-methoxy-benzylidene)-N′-(7-morpholin-4-yl-2-phenyl-pyrazolo[1,5-a]pyrimidin-5-yl)-hydrazine], for which the IC50 in assay [1] was 40 nM; in assay [2], more than 10000 nM.

As for `CCCCC(=O)N1CCN(c2ccc(-c3cc4nc(N/N=C/c5cccc(C)c5)cc(N5CCOCC5)n4n3)cc2)CC1` [Compound 31, N-(3-methyl-benzylidene)-N′-{7-morpholin-4-yl-2-[4-(1-oxo-pentan-1-yl)piperazin-1-yl-phenyl]-pyrazolo[1,5-a]pyrimidin-5-yl}-hydrazine], the IC50 is 18 nM in assay [1] and more than 10000 nM in assay [2].

For `Cc1cccc(CNNc2cc(N3CCOCC3)n3nc(-c4ccccc4)cc3n2)c1` [Compound 34, N-(3-methyl-benzyl)-N′-(7-morpholin-4-yl-2-phenyl-pyrazolo[1,5-a]pyrimidin-5-yl)-hydrazine], the concentration for half-maximal inhibition (IC50) is 24 nM in assay [1] and more than 10000 nM in assay [2].

On to `C(=N\Nc1cc(N2CCOCC2)n2nc(-c3ccccn3)cc2n1)/c1c[nH]c2ccccc12` [Compound 36, N-(1H-indol-3-yl-methylidene)-N′-(7-morpholin-4-yl-2-pyridin-2-yl-pyrazolo[1,5-a]pyrimidin-5-yl)-hydrazine], for which the IC50 in assay [1] was 7 nM; in assay [2] it was more than 10000 nM.

Turning to `COc1ccc(C)cc1/C=N/Nc1cc(N2CCOCC2)n2nc(-c3ccccc3)cc2n1` [Compound 40, N-(2-methoxy-5-methyl-benzylidene)-N′-(7-morpholin-4-yl-2-phenyl-pyrazolo[1,5-a]pyrimidin-5-yl)-hydrazine], the values for the half-inhibitory concentration (IC50) in assay [1] and in assay [2] were 64 nM and more than 10000 nM, respectively.

Take `Cc1cccc(/C=N/Nc2cc(N3CCOCC3)n3nc(-c4ccc(NN5CCOCC5)cc4)cc3n2)c1` [Compound 68]: the results for the 50% inhibitory concentration (IC50) in assay [1] and in assay [2] were 8.7 nM and more than 10000 nM, respectively.

As to `Cc1cccc(/C=N/Nc2cc(N3CCOCC3)n3nc(-c4ccc(N5CCSCC5)cc4)cc3n2)c1` [Compound 69, N-(3-methyl-benzylidene)-N′-{7-morpholin-4-yl-2-(4-thiomorpholin-4-yl-phenyl)-pyrazolo[1,5-a]pyrimidin-5-yl}-hydrazine], the half-maximal inhibitory concentration (IC50) in assay [1] was 8.2 nM; in assay [2], more than 10000 nM.

For the compound `Cc1cccc(/C=N/Nc2cc(N3CCOCC3)n3nc(C)cc3n2)c1` [Compound 79, N-(3-methyl-benzylidene)-N′-(2-methyl-7-morpholin-4-yl-pyrazolo[1,5-a]pyrimidin-5-yl)-hydrazine], the IC50 is 220 nM in assay [1] and more than 10000 nM in assay [2].

Consider `CCOC(=O)c1cc2nc(N/N=C/c3cccc(C)c3)cc(N3CCOCC3)n2n1` [Compound 81, N-(2-ethoxycarbonyl-7-morpholin-4-yl-pyrazolo[1,5-a]-pyrimidin-5-yl)-N′-(3-methyl-benzylidene)-hydrazine], for which the IC50 in assay [1] was 55 nM; in assay [2], more than 10000 nM.

With `Cc1cccc(/C=N/Nc2cc(N3CCOCC3)n3ncc(-c4ccccn4)c3n2)c1` [Compound 87, N-(3-methyl-benzylidene)-N′-(7-morpholin-4-yl-3-pyridin-2-yl-pyrazolo[1,5-a]pyrimidin-5-yl)-hydrazine], in assay [3], the half-maximal inhibitory concentration (IC50) was 2400 nM.

In the case of `C(=N\Nc1cc(N2CCOCC2)n2ncc(-c3ccccn3)c2n1)/c1c[nH]c2ccccc12` [Compound 88, N-(1H-indol-3-yl-methylidene)-N′-(7-morpholin-4-yl-3-pyridin-2-yl-pyrazolo[1,5-a]pyrimidin-5-yl)-hydrazine], the 50% inhibitory concentration (IC50) in assay [1] was 420 nM; in assay [2], more than 10000 nM.

On to `Cc1cccc(/C=N/Nc2cc(N3CCOCC3)n3nc(-c4cnccn4)cc3n2)c1` [Compound 90, N-(3-methyl-benzylidene)-N′-(7-morpholin-4-yl-2-pyrazin-2-yl-pyrazolo[1,5-a]pyrimidin-5-yl)-hydrazine], for which the results for the IC50 in assay [1] and in assay [3] were 8.3 nM and 2500 nM, respectively.

With `C(=N\Nc1cc(N2CCOCC2)n2nc(-c3ccncc3)cc2n1)/c1ccsc1` [Compound 91, N-(7-morpholin-4-yl-2-pyridin-4-yl-pyrazolo[1,5-a]-pyrimidin-5-yl)-N′-thiophen-3-yl-methylidene-hydrazine], the IC50 was found to be 48 nM in assay [1] and 4600 nM in assay [3].

On to `Cc1cccc(/C=N/Nc2cc(N3CCOCC3)n3nc(-c4ccnnc4)cc3n2)c1` [Compound 94, N-(3-methyl-benzylidene)-N-(7-morpholin-4-yl-2-pyridazin-4-yl-pyrazolo[1,5-a]pyrimidin-5-yl)-hydrazine], for which the figures for the 50% inhibitory concentration (IC50) in assay [1] and in assay [3] were 18 nM and 1000 nM, respectively.

Regarding `C(=N\Nc1cc(N2CCOCC2)n2nc(-c3ccncc3)cc2n1)/c1coc2ccccc12` [Compound 95], the figures for the IC50 in assay [1] and in assay [3] were 28 nM and 810 nM, respectively.

Take `C(=N\Nc1cc(N2CCOCC2)n2nc(-c3ccncc3)cc2n1)/c1cc2ccccc2o1` [Compound 96]: the IC50 in assay [1] amounted to 50 nM; in assay [3], 1100 nM.

As for `C(=N\Nc1cc(N2CCOCC2)n2nc(-c3ccnnc3)cc2n1)/c1c[nH]c2ccccc12` [Compound 97, N-(1H-indol-3-yl-methylidene)-N-(7-morpholin-4-yl-2-pyridazin-4-yl-pyrazolo[1,5-a]pyrimidin-5-yl)-hydrazine], the IC50 in assay [1] turned out to be 8.3 nM; in assay [3], 3200 nM.

Regarding `C(=N\Nc1cc(N2CCOCC2)n2nc(-c3ccncc3)cc2n1)/c1ccc2[nH]ccc2c1` [Compound 104], the concentration for half-maximal inhibition (IC50) is 100 nM in assay [1] and 2500 nM in assay [3].

Consider `C(=N\Nc1cc(N2CCOCC2)n2nc(-c3ccncc3)cc2n1)/c1cc2ccccc2s1` [Compound 108, N-benzo[b]thiophen-2-yl-methylidene-N′-(7-morpholin-4-yl-2-pyridin-4-yl-pyrazolo[1,5-a]pyrimidin-5-yl)-hydrazine], for which the results for the IC50 in assay [1] and in assay [3] were 110 nM and 3700 nM, respectively.

Take `Nc1cccc(/C=N/Nc2cc(N3CCOCC3)n3nc(-c4ccccc4)cc3n2)c1` [Compound 140, N-(3-amino-benzylidene)-N-(7-morpholin-4-yl-2-phenyl-pyrazolo[1,5-a]pyrimidin-5-yl)-hydrazine]: the half-inhibitory concentration (IC50) is 170 nM in assay [1] and more than 10000 nM in assay [2].
